Data on 85 compounds can be found in a melting point compilation (Tetko et al.; mined from patent text by program, amines drawn as free bases though some values may be those of a salt).

For orientation: melting point means the temperature of the solid-liquid transition.

Structures are written as SMILES. A value given as a limit tells only on which side of the number the result lay.

Take `CS(=O)(=O)c1ccc(-c2cnn(C=C(F)C(F)(F)C(F)(F)F)c(=O)c2-c2ccc(F)cc2)cc1`: the melting point was 167 to 169 °C.

Consider `O=CN1CCC(Oc2c(F)c(F)c(F)c(F)c2F)(c2ccccc2)CC1`, for which the melting point fell in the range of 118 to 119 °C. As for `CSC(=S)Nc1ccc(OCc2nc3ccccc3s2)cc1C`, the melting point lay in the range of 133 to 135 °C. In the case of `CCOC(=O)c1ccc(-n2ccnc2C)cc1`, the melting point fell in the range of 72 to 73 °C. In turn, `CC(C)C(=O)NC(N)=S` gave a melting point of 114 to 116 °C. Consider `CC(C)(C)c1nn(C(C)(C)C)c(N)c1C#N`, for which the melting point was in the range of 78 to 80 °C. For the compound `CCn1cc(/C=C/c2cn(-c3ccccc3)nc2OCc2ccc(OCc3nc(-c4ccc(CC(=O)O)cc4)oc3C)c(OC)c2)cn1`, the melting point lay in the range of 146 to 147 °C. As for `Cc1cc(-c2ccc(C(F)(F)F)cc2)cc(-c2ccnc(-c3cccc(NS(C)(=O)=O)c3)c2)n1`, the figure is 196 °C; as for `CC(=O)NC(=CBr)C(=O)OC(C)(C)C`, 106 to 107 °C; as for `COc1ccc2c(c1)c1c(n2CCBr)C(=O)CCC1`, 119 °C.

`COC(=O)C(C)(C)CCCOc1cc(C)c(OC(=O)Nc2c(C(C)C)cccc2C(C)C)cc1C` returned a melting point of 111 to 112 °C. `C#CCN(Cc1ccc2nc(NC(=O)C(C)(C)C)[nH]c(=O)c2c1)c1ccc(C#N)cc1`: the melting point is 183 to 186 °C. As for `c1ccc(-c2ccc(NCc3nccc(-c4ccc(-c5ccc(N(c6ccccc6)c6ccccc6)cc5)cc4)n3)cc2)cc1`, the figure is 224 to 225 °C; as for `C#Cc1ccc(Nc2c(-c3nnc(NCCO)o3)ccc(F)c2F)c(F)c1`, 112 to 115 °C; as for `Nc1ccc(Sc2cccc3cnccc23)cc1NCc1ccccc1`, 125 to 127 °C. In turn, `Cc1nc2ncnn2c(Cl)c1CCCl` displayed a melting point of 81 to 82 °C.

The compound `N#Cc1cccc2c1C(=O)C(OCc1ccccc1)=C(OCc1ccccc1)C2=O` returned a melting point of 118 to 121 °C. As to `COc1ccc(-c2cc(=O)[nH]nc2C)cc1`, the melting point was 255 to 256 °C. `O=[N+]([O-])c1ccc2c(c1)N=Cc1ccccc1O2` registered a melting point of 179 to 181 °C. Take `Cc1cccc2c1C(=O)C(=S)N2`: the melting point came out at 265 °C. Compound `COC(=O)c1cccc([N+](=O)[O-])c1CS(=O)(=O)NC(=O)Nc1nc(OC)cc(OC)n1` returned a melting point of 177 to 181 °C. As to `O=C(Nc1ccncc1)Nc1ccc(-c2nc(N3CCOCC3)c3nnn(C4CCOCC4)c3n2)cc1`, the melting point came to 332 °C. `O=c1oc(-c2cccc(Cl)c2)cc(O)c1SCCCCc1ccccc1` returned a melting point of 123 to 124 °C. `COc1ccc(C(=O)c2c(-c3ccc(OC)cc3)sc3cc(OC)ccc23)cc1` registered a melting point of 119 to 120 °C. Consider `Cc1oc(-c2ccccc2)nc1C=Cc1ccc(/C=C/C=C2/OC(=O)NC2=O)cc1`, for which the melting point was 274 to 275 °C. As to `CN(c1ccccc1)c1ncccc1NC(=O)c1ccccc1Cl`, the melting point fell in the range of 145 to 146 °C. The compound `OCC1Cc2sccc2CN1C(=S)Nc1cccc2cnccc12` (racemic) had a melting point of 185 °C.

`Cc1cc(-n2ccnc2)c2cccc(OCc3c(Cl)ccc(S(=O)(=O)N4CCC[C@H]4C(N)=O)c3Cl)c2n1` gave a melting point of 110 °C. The compound `CCOC(=O)c1nc(-c2ccccc2)[nH]c1N=NN(C)C` returned a melting point of 171 °C. Consider `CCCCc1nc2ccc(C(=O)O)cc2n1Cc1ccccc1Cl`, for which the melting point was in the range of 238 to 241 °C.

`CCCCCCCCCCCCCCCCCCS(=O)(=O)c1cc(C(=O)OC)c([N+](=O)[O-])c(C(=O)OC)c1` displayed a melting point of 98 to 100 °C. With `Cc1[nH]c(C)c(-c2ccc(Oc3ccc(C(F)(F)F)cc3)cc2)c(=O)c1Br`, the melting point fell in the range of 304 to 305 °C.

`CS(=O)(=O)CC(=O)NCCn1ccc2ncnc(Nc3ccc(Oc4cccc(OC(F)(F)F)c4)c(Cl)c3)c21` came in with a melting point of 133 to 135 °C. For the compound `O=C(NCc1ccc(/C=C/C(c2cc(Cl)c(Cl)c(Cl)c2)C(F)(F)F)cc1Cl)C(=O)NCC(F)(F)F` (stereo not given), the melting point lay in the range of 161 to 163 °C. `C[C@@H](O)CN1CC(c2cccc(C(F)(F)F)c2)C1` gave a melting point of 81 to 82 °C. In turn, `CN1CCC(O)(c2ccccc2N)CC1` returned a melting point of 135 to 136 °C. As for `CCCCCCCCCCCCCCCCCCNC(=O)C(N)=O`, the figure is 169 °C. In turn, `CCCC(=O)Nc1n[nH]c2c(F)c(F)ccc12` came in with a melting point of 191 °C. As for `Cc1cc(O)c(CCN(C)C)c(C)c1C`, the figure is 72 °C. In the case of `CC(C)(C)OC(=O)CN1CCC(C)(N)C1=O` (stereo not given), the melting point is 72 to 77 °C. For the compound `CC(Cc1ccccc1C(=O)O)c1cccs1` (stereo not given), the melting point was in the range of 66 to 68 °C. `CCCCOC(=O)c1ccc(CN2CCCN3CCCC32)cc1` (stereo not given) displayed a melting point of 64 to 67 °C. In the case of `Cc1nc(-c2ccc(-c3cnc4[nH]c(=O)n(CCC5CCOCC5)c4n3)cc2)n[nH]1`, the melting point fell in the range of 290 to 292 °C.

`COc1ccc(NC(=O)C2=C(O)c3ccccc3S(=O)(=O)N2C)ccc1=O` came in with a melting point of 215 to 218 °C.

With `N#Cc1c(N2CCN(C(=O)c3cccs3)CC2)c2cccnc2[nH]c1=O`, the melting point turned out to be 320 °C. For `CC(C)N(C(=O)CN1C(=O)C(NC(=O)Nc2ccccc2)C(=O)N(c2ccccc2)c2ccccc21)c1ccccc1` (stereo not given), the melting point lay within 230 to 235 °C. For the compound `Oc1ccc2c(c1)OCC(c1ccc(C(F)(F)F)cc1)C2c1ccc(OCCN2CCCCC2)cc1` (stereo not given), the melting point was in the range of 117 to 119 °C.

Regarding `CC(C#N)c1ccc2nc(-c3ccccc3)ccc2c1` (stereo not given), the melting point is 126 °C.

Regarding `O=C(O)c1ccc(CC2(Cc3ccc(C(=O)O)cc3)C(=O)N=C3C=CC=CN32)cc1`, the melting point is > 300 °C.

`CNC(=O)/C(=N/OC)c1ccccc1Oc1ccc(C)c(C)c1` gave a melting point of 98 to 100 °C. As for `NS(=O)(=O)c1ccc(-n2nc(C(F)(F)F)c(Cl)c2-c2ccc(-c3cncs3)c(Cl)c2)cn1`, the figure is 191 to 193 °C; as for `CC(C)NC(=O)Nc1nc2nc(N)ncc2cc1-c1c(Cl)cccc1Cl`, 184 to 188 °C; as for `COC(=O)C=CC(=O)c1ccc(Oc2ccccc2)cc1`, 88 to 90 °C. Next, `O=[N+]([O-])c1ccc(NCCc2c[nH]cn2)nc1`: 162 to 163 °C; `CC(CC(C)(C)OOC(=O)NC1CCCCC1)OC(=O)NC1CCCCC1` (stereo not given): 224 to 226 °C. `CC(=O)NC(Cc1ccc(CC(=O)OC(C)(C)C)cc1)C(=O)OCc1ccccc1` (stereo not given) yielded a melting point of 170 to 172 °C. For the compound `CSc1ccc2ccc3ccccc3c(=O)c2c1`, the melting point was in the range of 66.5 to 67.5 °C. Take `CCCc1c(C(=O)NCc2ccc3cc(OCC(=O)O)ccc3c2)cnn1-c1ccc(Cl)cc1`: the melting point was in the range of 203 to 204 °C.

Consider `C=CCOc1ccc2c(=O)c(C)c(-c3ccccc3)oc2c1C(=O)C=Cc1cccc(OC)c1`, for which the melting point was in the range of 90 to 92 °C. Consider `CC(=O)Nc1nc(CCc2ccc(NC(=O)CNC(=O)OC(C)(C)C)cc2)c(Cc2ccc(S(C)(=O)=O)cc2)s1`, for which the melting point fell in the range of 186 to 188 °C.

Compound `COc1cccc(CNC(=O)c2nc3scc(CC(=O)Nc4ccc(C(=O)O)cc4)c3c(=O)[nH]2)c1` yielded a melting point of 279 °C.

Compound `CCCCCS(=O)(=O)NC(=O)CCc1ccc(OCCOC)cc1Oc1ncc(C(F)(F)F)cc1Cl` came in with a melting point of 140 to 142 °C. Turning to `COc1ccc(N2CCN(c3c(C)c(C(C)O)c4c(c3C)C(c3ccc(C)cc3)C(C)(C)O4)CC2)cc1` (stereo not given), the melting point was 149 to 151 °C. For `O=C(CC1CCN(CCn2c(=O)[nH]c3ccccc32)CC1)c1ccc(F)cc1`, the melting point was found to be 181 °C. Take `CC(C)(C)[Si](C)(C)O[C@@H]1C[C@]2(O)C[C@@H](OC2=O)[C@@H]1O`: the melting point fell in the range of 90 to 94 °C.

`Cc1ccc(-c2ncc(NC(=O)OCc3ccccc3)c(=O)n2CC(=O)NC(Cc2ccccc2)C(=O)C(F)(F)F)cc1` (stereo not given) gave a melting point of 173 to 175 °C.

For the compound `C=COCCn1c(CN2CCN(C)CC2)nc2ccccc21`, the melting point lay in the range of 65.5 to 67.5 °C. With `CCC1(CC)OC(=O)C(Cn2cncn2)(c2ccc(Cl)cc2)O1` (stereo not given), the melting point was 105 to 108 °C. As for `NS(=O)(=O)c1ccc(-n2nc(CCCNC(=O)NC3CCCCCC3)cc2-c2ccccc2)cc1`, the figure is 164 to 170 °C; as for `Nc1c(-c2ccc(-c3ccccc3F)cc2)nc2ccc(C(F)(F)F)cc2c1C(=O)O`, 255 to 260 °C; as for `COCC1CN(c2ccc(C3CCCCC3)c(O)c2)C(=O)O1` (racemic), 207 to 208 °C. The compound `COC(C(=O)O)C(=O)Oc1cccc(-c2cn3c(n2)sc2ccccc23)c1` (stereo not given) gave a melting point of 110 to 113 °C. `c1ccc(-c2ccc(-c3cc4ccccc4[nH]3)cc2)cc1` showed a melting point of 301 °C. `CS(=O)(=O)c1ccc(-c2coc3ccc(-c4nnc(O)o4)cc23)cc1`: the melting point was 284 to 285 °C. As for `COc1ccccc1N1CCN(CCn2cnc3c(c2=O)CN(Cc2ccccc2)CC3)CC1`, the figure is 200 °C; as for `CCCCCCC(=O)N[C@H](CO)C(=O)OCc1ccccc1`, 62 to 66 °C. `CCCc1nc2c(N)nc3c(c2n1CC(C)(C)OCCS(C)(=O)=O)CCCC3` yielded a melting point of 188 to 190 °C.

`CC(C)NC(=O)c1nc(-c2cccc(Cl)c2)c(-c2ccc(=O)n(C(C)C)n2)s1`: the melting point was 105 to 106 °C.

The compound `O=C(c1ccc(Cl)cc1)c1cc(-c2ccccc2)c(N2CCOCC2)s1` displayed a melting point of 187 to 188 °C. `COCC(=O)N[C@@H]1c2cc(C#N)ccc2OC(C)(C)[C@H]1O` (relative stereo) yielded a melting point of 162 to 163 °C. Regarding `Nc1cccc(NNC=O)c1`, the melting point fell in the range of 108 to 113 °C. Turning to `O=C1CCC(N2Cc3c(OCc4ccc(CSc5nc6ccccc6[nH]5)cc4)cccc3C2=O)C(=O)N1` (stereo not given), the melting point was in the range of 160 to 162 °C.

`CCc1nccn1Cc1ccc2c(c1)Cc1c(-c3ccsc3)n[nH]c1-2` came in with a melting point of 129 to 132 °C. The compound `CC(C)OC(OC(C)C)(O[C@H](C)Cn1cnc2c(Cl)nc(N)nc21)P(=O)(O)O` returned a melting point of 130 to 132 °C. The compound `CCN(CC)CCn1c(=O)c2cc(OC)c(OC)cc2c2cnc3cc4c(cc3c21)OCO4` gave a melting point of 159 to 160 °C.
